# Assays:
# Assay in all cases: relative viability (nuclei count vs DMSO), 5 days (fraction); higher = more cells survive
# Pictilisib + Crizotinib = compound: CS(=O)(=O)N1CCN(Cc2cc3nc(-c4cccc5[nH]ncc45)nc(N4CCOCC4)c3s2)CC1 [Pictilisib] + C[C@@H](Oc1cc(-c2cnn(C3CCNCC3)c2)cnc1N)c1c(Cl)ccc(F)c1Cl [Crizotinib] (partner 1 µM)
# Method in brief: (§1)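 Five library-drug doses in √10 steps were combined with a fixed anchor-drug dose, or a single drug was given alone, by pin tool to lung cancer cell lines in 1536-well plates the day after seeding. Nuclei were stained and counted after 5 days. Relative viability is the nuclei count in treated wells over that in vehicle wells, taken as the median of duplicate plates.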
# MK-2206 + Foretinib = compound: NC1(c2ccc(-c3nc4ccn5c(=O)[nH]nc5c4cc3-c3ccccc3)cc2)CCC1 [MK-2206] + COc1cc2c(Oc3ccc(NC(=O)C4(C(=O)Nc5ccc(F)cc5)CC4)cc3F)ccnc2cc1OCCCN1CCOCC1 [Foretinib] (partner 0.25 µM)
# Method in brief: as §1
# Pictilisib + OSI-027 = compound: CS(=O)(=O)N1CCN(Cc2cc3nc(-c4cccc5[nH]ncc45)nc(N4CCOCC4)c3s2)CC1 [Pictilisib] + COc1cccc2cc(-c3nc([C@H]4CC[C@H](C(=O)O)CC4)n4ncnc(N)c34)[nH]c12 [OSI-027] (partner 0.5 µM)
# Method in brief: as §1
# Pictilisib + Olaparib = compound: CS(=O)(=O)N1CCN(Cc2cc3nc(-c4cccc5[nH]ncc45)nc(N4CCOCC4)c3s2)CC1 [Pictilisib] + O=C(c1cc(Cc2n[nH]c(=O)c3ccccc23)ccc1F)N1CCN(C(=O)C2CC2)CC1 [Olaparib] (partner 8 µM)
# Method in brief: as §1
# MK-2206 + Olaparib = compound: NC1(c2ccc(-c3nc4ccn5c(=O)[nH]nc5c4cc3-c3ccccc3)cc2)CCC1 [MK-2206] + O=C(c1cc(Cc2n[nH]c(=O)c3ccccc23)ccc1F)N1CCN(C(=O)C2CC2)CC1 [Olaparib] (partner 8 µM)
# Method in brief: as §1
Cell Line,relative viability (Pictilisib + Crizotinib; first compound 0.02 µM),relative viability (Pictilisib + Crizotinib; first compound 0.06325 µM),relative viability (Pictilisib + Crizotinib; first compound 0.6325 µM),relative viability (Pictilisib + Crizotinib; first compound 2 µM),relative viability (MK-2206 + Foretinib; first compound 0.01 µM),relative viability (MK-2206 + Foretinib; first compound 0.03162 µM),relative viability (MK-2206 + Foretinib; first compound 0.3162 µM),relative viability (MK-2206 + Foretinib; first compound 1 µM),relative viability (Pictilisib + OSI-027; first compound 0.02 µM),relative viability (Pictilisib + OSI-027; first compound 0.06325 µM),relative viability (Pictilisib + OSI-027; first compound 0.6325 µM),relative viability (Pictilisib + OSI-027; first compound 2 µM),relative viability (Pictilisib + Olaparib; first compound 0.02 µM),relative viability (Pictilisib + Olaparib; first compound 0.06325 µM),relative viability (Pictilisib + Olaparib; first compound 0.6325 µM),relative viability (Pictilisib + Olaparib; first compound 2 µM),relative viability (MK-2206 + Olaparib; first compound 0.01 µM),relative viability (MK-2206 + Olaparib; first compound 0.03162 µM),relative viability (MK-2206 + Olaparib; first compound 0.3162 µM),relative viability (MK-2206 + Olaparib; first compound 1 µM)
NCI-H2347,0.695,0.496,0.592,0.545,0.877,0.818,1.15,0.723,0.458,0.213,0.286,0.217,0.639,0.626,0.474,0.406,0.618,0.541,0.58,0.503
LK-2,0.251,0.23,0.239,0.23,1.57,1.19,1.34,1.39,0.183,0.208,0.15,0.142,0.523,0.588,0.485,0.304,0.822,0.852,0.664,0.467
HCC-15,0.791,0.926,0.761,0.583,0.971,1.04,0.958,0.892,0.693,0.641,0.407,0.32,0.758,0.772,0.638,0.504,0.722,0.757,0.625,0.692
SW 1573,0.817,0.791,0.626,0.268,0.833,1.28,0.755,0.956,0.615,0.584,0.362,0.237,0.512,0.542,0.377,0.22,0.5,0.466,0.396,0.393
NCI-H838,0.871,0.795,0.76,0.497,0.956,1.08,0.962,0.908,0.328,0.308,0.242,0.189,0.775,0.718,0.603,0.293,0.768,0.857,0.767,0.685
RERF-LC-KJ,0.845,0.875,0.816,0.635,0.868,0.861,0.82,0.77,0.531,0.559,0.402,0.371,0.925,0.834,0.784,0.578,0.885,0.93,0.874,0.81
ChaGo-K-1,1.17,1.21,1.08,0.947,0.969,0.974,0.922,0.93,0.586,0.626,0.411,0.314,0.44,0.381,0.5,0.332,0.404,0.422,0.413,0.429
NCI-H441,0.513,0.632,0.504,0.388,0.923,1.03,0.59,0.822,0.486,0.552,0.38,0.307,0.653,0.606,0.493,0.346,0.588,0.622,0.541,0.338
NCI-H2170,1.19,1.09,0.973,0.617,1.06,1.04,1.02,1.02,0.776,0.711,0.642,0.418,0.608,0.508,0.562,0.33,0.617,0.585,0.597,0.558
PC-14,0.909,0.928,0.926,0.681,0.903,0.993,0.985,0.994,1.02,1,0.557,0.266,0.385,0.39,0.442,0.341,0.274,0.313,0.371,0.354
NCI-H2009,1.02,1.02,1.04,0.705,1.26,1.18,1.24,1.16,0.656,0.583,0.319,0.188,0.743,0.634,0.592,0.422,0.703,0.662,0.701,0.704
NCI-H1437,0.941,0.952,1.03,0.652,1.19,1.27,1.35,1.35,0.855,0.685,0.619,0.289,0.635,0.67,0.71,0.546,0.632,0.643,0.698,0.653
NCI-H647,1.16,1.18,0.884,0.524,1.1,1.12,1.06,1.2,0.598,0.709,0.403,0.182,0.661,0.659,0.411,0.219,0.568,0.559,0.662,0.388
SK-MES-1,1.04,0.971,0.804,0.492,0.893,1.06,0.886,0.84,0.596,0.566,0.334,0.215,0.881,0.654,0.474,0.296,0.635,0.727,0.692,0.482
NCI-H2087,0.912,0.828,1.03,0.985,1.11,1.1,1.17,1.08,0.503,0.446,0.32,0.237,0.537,0.477,0.493,0.345,0.641,0.552,0.592,0.51
BEN,0.8,1.07,0.817,0.58,0.687,0.76,0.709,0.606,0.309,0.293,0.286,0.273,1.03,1.11,1.02,0.978,1.06,1.2,1.14,1.02
NCI-H3122,0.258,0.253,0.194,0.186,0.998,0.896,1.05,0.944,0.909,0.786,0.435,0.172,0.603,0.659,0.595,0.329,0.681,0.687,0.656,0.63
LCLC-97TM1,0.236,0.277,0.317,0.159,0.881,0.929,0.887,0.804,0.4,0.488,0.301,0.253,0.446,0.379,0.289,0.112,0.381,0.351,0.273,0.234
NCI-H2228,0.437,0.473,0.311,0.168,0.761,0.811,0.614,0.467,0.587,0.431,0.283,0.155,0.715,0.734,0.45,0.209,0.832,0.594,0.464,0.417
COR-L23,0.584,0.75,0.668,0.594,1.1,0.959,1.12,0.948,0.767,0.809,0.732,0.372,0.316,0.319,0.337,0.327,0.32,0.31,0.297,0.328
EMC-BAC-2,0.779,0.811,0.691,0.601,1.06,1.01,0.905,0.885,0.378,0.364,0.26,0.245,0.513,0.52,0.407,0.334,0.438,0.462,0.451,0.419
NCI-H1944,1.11,0.962,0.933,0.603,0.889,1,0.887,0.829,0.403,0.345,0.249,0.179,0.395,0.381,0.368,0.232,0.388,0.439,0.429,0.478
A-427,0.979,0.829,0.908,0.603,1.05,1.2,1.16,1.15,0.492,0.405,0.393,0.351,0.721,0.712,0.71,0.552,0.724,0.704,0.78,0.699
NCI-H520,0.826,0.884,0.504,0.197,0.785,1.16,0.332,0.28,0.239,0.332,0.156,0.171,0.387,0.323,0.186,0.118,0.359,0.331,0.228,0.195
NCI-H650,0.762,0.712,0.629,0.642,0.935,1.13,1.05,1.13,0.563,0.555,0.425,0.321,0.372,0.37,0.44,0.348,0.4,0.362,0.383,0.391
COR-L 105,0.814,0.913,0.988,0.418,1.08,0.856,0.984,1.06,0.735,0.629,0.472,0.28,0.667,0.697,0.734,0.549,0.774,0.7,0.57,0.749
NCI-H1755,0.848,0.829,0.827,0.546,0.929,0.986,0.816,0.823,0.684,0.666,0.41,0.279,0.872,0.84,0.806,0.403,0.875,0.929,0.901,0.825
NCI-H2085,0.887,0.994,0.747,0.394,0.921,1.07,1,0.735,0.706,0.802,0.303,0.284,0.764,0.823,0.586,0.353,0.778,0.858,0.786,0.732
NCI-H2023,0.513,0.533,0.331,0.201,0.943,0.972,0.922,0.722,0.385,0.33,0.151,0.0847,0.521,0.451,0.354,0.134,0.463,0.506,0.436,0.44
HOP-62,1.07,0.972,1.01,0.671,1.09,1.16,1.15,1.06,0.929,0.868,0.666,0.535,0.389,0.556,0.512,0.446,0.472,0.412,0.574,0.573
